In patent US20220056043A1, “NITROGEN-CONTAINING FUSED CYCLIC COMPOUND, PREPARATION METHOD THEREFOR AND USE THEREOF” (SICHUAN KELUN-BIOTECH BIOPHARMACEUTICAL CO., LTD., priority 2019, published 2022) one finds EC50 data, which are given here for 31 molecules.

The structures appear in SMILES notation. Where a name gives a salt, the structure may show the parent alone.

The target of the assay is T1, hTLR7 (Homo sapiens, UniProt Q9NYK1).
T1 construct: host or cells: HEK-hTLR7-NF-κB-Luciferase cells
T1 sequence (Q9NYK1 27-1049): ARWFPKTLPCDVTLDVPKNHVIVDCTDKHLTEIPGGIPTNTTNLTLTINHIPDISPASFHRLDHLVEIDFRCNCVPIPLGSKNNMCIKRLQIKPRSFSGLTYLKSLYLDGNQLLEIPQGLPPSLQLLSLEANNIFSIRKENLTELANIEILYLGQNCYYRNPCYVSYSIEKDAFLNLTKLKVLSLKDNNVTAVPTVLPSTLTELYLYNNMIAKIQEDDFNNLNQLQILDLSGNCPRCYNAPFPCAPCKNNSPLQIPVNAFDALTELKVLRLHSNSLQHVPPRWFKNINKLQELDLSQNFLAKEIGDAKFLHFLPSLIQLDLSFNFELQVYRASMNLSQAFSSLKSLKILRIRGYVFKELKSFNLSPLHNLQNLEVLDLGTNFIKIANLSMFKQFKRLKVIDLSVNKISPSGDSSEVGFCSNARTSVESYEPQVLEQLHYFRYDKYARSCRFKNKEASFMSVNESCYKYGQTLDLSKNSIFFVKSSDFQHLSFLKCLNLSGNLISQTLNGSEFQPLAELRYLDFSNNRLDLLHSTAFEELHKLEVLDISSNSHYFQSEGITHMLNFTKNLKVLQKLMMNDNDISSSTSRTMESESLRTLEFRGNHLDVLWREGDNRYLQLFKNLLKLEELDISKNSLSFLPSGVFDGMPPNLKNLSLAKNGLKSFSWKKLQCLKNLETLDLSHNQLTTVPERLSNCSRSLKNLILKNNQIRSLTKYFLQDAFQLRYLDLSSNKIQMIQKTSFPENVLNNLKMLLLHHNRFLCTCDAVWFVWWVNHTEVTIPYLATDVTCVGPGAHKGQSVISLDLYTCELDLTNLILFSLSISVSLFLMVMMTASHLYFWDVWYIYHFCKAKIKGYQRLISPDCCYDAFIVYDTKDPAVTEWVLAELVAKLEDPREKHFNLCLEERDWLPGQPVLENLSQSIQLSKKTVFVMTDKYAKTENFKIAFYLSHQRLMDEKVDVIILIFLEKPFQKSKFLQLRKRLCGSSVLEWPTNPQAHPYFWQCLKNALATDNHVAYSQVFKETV
The assay can be described thus: Agonistic effect on hTLR7, HEK-hTLR7-NF-κB-Luciferase reporter cells. Type of assay: cell-based. Particulars: 16 hours. The text has this: Experimental Example 3: Agonistic Effect of the Compound of the Invention on hTLR7
In this test, the luciferase in HEK-hTLR7-NF-κB-reporter cells was detected to test the activating effect of the compound of the invention on TLR7 signaling pathway, so as to evaluate the specificity of the agonistic effect of the compound on NLRP3 pathway.
Reagents: DMEM (High glucose); FBS (fetal bovine serum) (Gibco); Bright-Glo™ Luciferase detection kit (Promega)
Cells: HEK-hTLR7-NF-κB-Luciferase gene cells (human TLR7 NF-κB-luciferase reporter gene cells) (Nanjing Cobioer)
1) The HEK-hTLR7-NF-κB-Luciferase cells in a logarithmic growth phase were trypsinized and resuspended in the medium to a concentration of 2×10^6 cells/mL. 50 μL/well of the cell resuspension was added to a 96-well plate such that the number of cells in each well was […]. An appropriate amount of 10 mM DMSO solution of the compound to be tested was taken and diluted to a concentration of 2× test concentration with the medium. 50 μL/well was added to the cells in the 96-well plate, and the 96-well plate was incubated in an incubator at 37° C. and 5% CO2 for 16 hours. The medium was DMEM (High glucose) containing 10% FBS.
2) After the cell incubation, 100 μL/well of Bright-Glo™ Luciferase detection reagent was added, and the mixture was incubated at room temperature for 5 minutes. Relative luciferase activity unit (RLU) was read using a microplate reader.
3) The EC50 of effect of the tested compound to stimulate hTLR7 was fitted by the GraphPad software log(agonist) vs. response—Variable slope four-parameter method.
`Nc1cc(N2CC3CC(C2)N3)c2sc(-c3ccn[nH]3)cc2n1` [Compound 176] displayed a half-maximal effective concentration (EC50) of more than 100 µM.
With `CN1CCN(CCNc2cc(N)nc3cc(-c4ccn[nH]4)sc23)CC1` [Compound 57, N^7-(2-(4-methylpiperazin-1-yl)ethyl)-2-(1H-pyrazol-5-yl)thieno[3,2-b]pyridine-5,7-diamine] the figure was more than 100 µM; with `C[C@@H]1CN(c2cc(N)nc3cc(-c4ccn[nH]4)sc23)C[C@H](C)O1` [Compound 169], more than 100 µM.
The value for `CN1CCN(CCCNc2cc(N)nc3cc(-c4ccn[nH]4)sc23)CC1` [Compound 54, N^7-(3-(4-methylpiperazin-1-yl)propyl)-2-(1H-pyrazol-5-yl)thieno[3,2-b]pyridine-5,7-diamine] was more than 100 µM; that for `Cn1cnc(CNc2cc(N)nc3cc(-c4ccn[nH]4)sc23)c1` [Compound 63, N^7-(1-methyl-1H-imidazol-4-yl)methyl-2-(1H-pyrazol-5-yl)thieno[3,2-b]pyridine-5,7-diamine] was more than 100 µM; that for `CN1CCC(Nc2cc(N)nc3cc(-c4ccn[nH]4)sc23)CC1` [Compound 89, N^7-(1-methylpiperidin-4-yl)-2-(1H-pyrazol-5-yl)thieno[3,2-b]pyridine-5,7-diamine] was more than 100 µM.
Molecule `Nc1cc(N2CC[C@@H](O)C2)c2sc(-c3ccn[nH]3)cc2n1` [Compound 181] came in with an EC50 of more than 100 µM.
The value for `CC1(O)CCN(CCCNc2cc(N)nc3cc(-c4ccn[nH]4)sc23)CC1` [Compound 99, 1-(3-((5-amino-2-(1H-pyrazol-5-yl)thieno[3,2-b]pyridin-7-yl)amino)propyl)-4-methylpiperidine-4-ol] was more than 100 µM; that for `Nc1cc(N2CCNCC2)c2sc(-c3ccn[nH]3)cc2n1` [Compound 175] was more than 100 µM.
With `Nc1cc(NC[C@@H]2CCCO2)c2sc(-c3ccn[nH]3)cc2n1` [Compound 105, (S)-2-(1H-pyrazol-5-yl)-N^7-((tetrahydrofuran-2-yl)methyl)thieno[3,2-b]pyridine-5,7-diamine] the figure was more than 100 µM; with `Nc1cc(N2CCN(C=O)CC2)c2sc(-c3ccn[nH]3)cc2n1` [Compound 178], more than 100 µM; with `CCC(CC)Nc1cc(N)nc2cc(-c3ccn[nH]3)sc12` [Compound 113, N^7-(pent-3-yl)-2-(1H-pyrazol-5-yl)thieno[3,2-b]pyridine-5,7-diamine], more than 100 µM.
The value for `CN(CCCNc1cc(N)nc2cc(-c3ccn[nH]3)sc12)C(=O)C1CC1` [Compound 76, N-(3-((5-amino-2-(1H-pyrazol-5-yl)thieno[3,2-b]pyridin-7-yl)amino)propyl)-N-methylcyclopropane formamide] was more than 100 µM; that for `Nc1cc(NCCCO)c2sc(-c3ccccc3)cc2n1` [Compound 93, 3-((5-amino-2-phenylthieno[3,2-b]pyridin-7-yl)amino)-1-propanol] was more than 100 µM.
With `CC1(CNc2cc(N)nc3cc(-c4ccn[nH]4)sc23)COC1` [Compound 121, N^7-((3-methyloxetan-3-yl)methyl)-2-(1H-pyrazol-5-yl)thieno[3,2-b]pyridine-5,7-diamine], the EC50 was more than 100 µM.
With `Cn1cc(CNc2cc(N)nc3cc(-c4ccn[nH]4)sc23)cn1` [Compound 106, N^7-(1-methyl-1H-pyrazol-4-yl)methyl-2-(1H-pyrazol-5-yl)thieno[3,2-b]pyridine-5,7-diamine], the EC50 is more than 100 µM.
As to `Cc1cccc(-c2cc3nc(N)cc(NCCCO)c3s2)n1` [Compound 91, 3-((5-amino-2-(6-methylpyridin-2-yl)thieno[3,2-b]pyridin-7-yl)amino)-1-propanol], the EC50 is more than 100 µM.
Turning to `Nc1cc(NCC(F)(F)c2ccccn2)c2sc(-c3ccn[nH]3)cc2n1` [Compound 97, N^7-(2,2-difluoro-2-(pyridin-2-yl)ethyl)-2-(1H-pyrazol-5-yl)thieno[3,2-b]pyridine-5,7-diamine], the EC50 is more than 100 µM.
Turning to `CC1(C)CCN(c2cc(N)nc3cc(-c4ccn[nH]4)sc23)CC1` [Compound 173], the EC50 was more than 100 µM.
With `Nc1cc(N[C@@H]2CC[C@@H](O)C2)c2sc(-c3ccn[nH]3)cc2n1` [Compound 30s, (1R,3R)-3-((5-amino-2-(1H-pyrazol-5-yl)thieno[3,2-b]pyridin-7-yl)amino)cyclopentanol hydrochloride] the figure was more than 100 µM; with `C[C@@H](CO)Nc1cc(N)nc2cc(-c3ccn[nH]3)sc12` [Compound 108, (S)-2-((5-amino-2-(1H-pyrazol-5-yl)thieno[3,2-b]pyridin-7-yl)amino)propanol], more than 100 µM.
With `Nc1cc(N2CCCC(O)C2)c2sc(-c3ccn[nH]3)cc2n1` (stereo not shown) [Compound 166] the figure was more than 100 µM.
The value for `Cc1c(-c2cc[nH]n2)sc2c(NCC3CC3)cc(N)nc12` [Compound 156] was more than 100 µM; that for `Cn1ccc(CNc2cc(N)nc3cc(-c4ccn[nH]4)sc23)n1` [Compound 60, N^7-(1-methyl-1H-pyrazol-3-yl)methyl-2-(1H-pyrazol-5-yl)thieno[3,2-b]pyridine-5,7-diamine] was more than 100 µM; that for `Nc1cc(NCCNC(=O)C2CC2)c2sc(-c3ccn[nH]3)cc2n1` [Compound 64] was more than 100 µM.
In turn, `COC1(C)CCN(c2cc(N)nc3cc(-c4ccn[nH]4)sc23)CC1` [Compound 165] displayed an EC50 of more than 100 µM.
With `Nc1cc(N2CCN(C3CC3)CC2)c2sc(-c3ccn[nH]3)cc2n1` [Compound 163] the figure was more than 100 µM; with `CC1(O)CCN(CCNc2cc(N)nc3cc(-c4ccn[nH]4)sc23)CC1` [Compound 98, 1-(2-((5-amino-2-(1H-pyrazol-5-yl)thieno[3,2-b]pyridin-7-yl)amino)ethyl)-4-methylpiperidine-4-ol], more than 100 µM.
Turning to `Nc1cc(NCCCO)c2sc(-c3ccncc3)cc2n1` [Compound 90, 3-((5-amino-2-(pyridin-4-yl)thieno[3,2-b]pyridin-7-yl)amino)-1-propanol], the EC50 is more than 100 µM.
As for `CC(CO)(CO)CNc1cc(N)nc2cc(-c3ccn[nH]3)sc12` [Compound 122], the half-maximal effective concentration (EC50) is more than 100 µM.
In turn, `COC1CCN(c2cc(N)nc3cc(-c4ccn[nH]4)sc23)C1` (stereo not shown) [Compound 180] yielded an EC50 of more than 100 µM.

As a reminder, the EC50 is the midpoint of the concentration-response curve. Low values mean greater potency, high ones weaker potency.
